# Values quoted from earlier work in US20090099252A1, “NOVEL L[…] AS THERAPEUTIC AGENTS” (priority 2007, published 2009).
# Test system: multi-drug resistant cell line SKVLB-1
# Settings: background statement
smiles,measurement,value
"C=C1C[C@H](C)C[C@@H]2CC=C[C@@H](C/C=C\C(=O)O[C@H]([C@@H](O)/C=C/[C@@H]3CC(C)=CCO3)C[C@@H]3O[C@H]3[C@@H](O)C1)O2 [Laulimalide, laulimalide]",IC50,1200 nM
